Assay [1] addresses T1, 7S globulin (β-conglycinin).
T1 construct: gene CG-1; native 7S fraction from defatted soybean flour (Nagano method), lyophilized; mixed trimers of alpha, alpha' and beta; 150-200 kDa; minor gamma-conglycinin
The experiment in a line: intrinsic fluorescence quenching, modified double logarithm model. In kind it is binding, Glycine max. The note with it: Trizma buffer pH 7.0, I = 0.05 M, 25 °C; excitation 280 nm; protein 5 μM, FA 0-20 μM (methods section prints mM). The source says:
intrinsic fluorescence quenching, modified double logarithm model on 7S globulin (β-conglycinin)

In assay [2] the target is T2, 11S globulin (glycinin).
T2 construct: gene GY1; native 11S fraction from defatted soybean flour (Nagano method), lyophilized; hexamer of non-identical subunits, each acidic A and basic B polypeptide joined by disulfide; 300-380 kDa
The assay is described as above. To be noted: Trizma buffer pH 7.0, I = 0.05 M, 25 °C; excitation 280 nm; protein 5 μM, FA 0-20 μM (methods section prints mM). In kind it is binding, Glycine max. The source says:
intrinsic fluorescence quenching, modified double logarithm model on 11S globulin (glycinin)

For the compound `Nc1nc2ncc(CNc3ccc(C(=O)N[C@@H](CCC(=O)O)C(=O)O)cc3)nc2c(=O)[nH]1` [folic acid], the entries for the “Parameters derived from modified double logarithm model / Ka [M^-1]” value in assay [1] and in assay [2] were 4.00 × 10^4 and 4.36 × 10^4, respectively.

Source of the values: publication PMC6415263, “Proteins as Nano-Carriers for Bioactive Compounds. The Case of 7S and 11S Soy Globulins and Folic Acid Complexation” (Polymers, 2018).
